From a melting point compilation (Tetko et al.) come the findings set out here.

What is called melting point is the temperature of the solid-liquid transition. `O=C(Nc1cccc(Cl)c1)c1ccc(Cl)nc1` yielded a melting point of 177 to 179 °C.
The same measure for `Cc1ccc(C(N)=O)c(F)c1`: 145 to 147 °C.
The same measure for `CC(=O)c1ccc(-c2ccccc2)s1`: 115 to 117 °C.
With `Nc1ccc(F)c(F)c1N`, the melting point lay within 114 to 117 °C.
Next, `O=C(O)CSC(O)C(=O)c1ccccc1` (centres undefined): 113 to 115 °C; `O=C(O)c1cccc(Oc2cnccn2)c1`: 112 to 114 °C; `Cc1cc(C)cc(Nc2nnc(SC(C)C(=O)O)s2)c1` (centres undefined): 127 to 129 °C.
With `CCOc1c(Br)cc(C=O)cc1OC`, the melting point lay in the range of 84 to 86 °C.
`Cn1cccc1C(=O)CCl` displayed a melting point of 30 to 40 °C.
As to `N#CCc1nc(C23CC4CC(CC(C4)C2)C3)cs1`, the melting point was 57 to 59 °C.
The compound `CCn1c(N)nc2cc(C#N)ccc21` came in with a melting point of 189 to 191 °C.
The compound `N#CCC(=O)NCCN1CCOCC1` registered a melting point of 68 to 75 °C.
As to `Brc1ccc(CN2CCNCC2)s1`, the melting point was 50 to 52 °C.
The same measure for `Cc1nn(CCO)c(C(F)F)c1C(=O)O`: 148 to 150 °C; for `CC(Cl)C(=O)Nc1cccc(I)c1` (centres undefined): 94 to 96 °C; for `O=c1c(Br)c[nH]cc1[N+](=O)[O-]`: 332 to 334 °C.
Take `CCOC(=O)c1cc2cc(N)ccc2s1`: the melting point was 89 to 91 °C.
`NC(=O)c1cccc(N)n1` displayed a melting point of 141 to 143 °C.
Next, `CC(Cl)C(=O)Nc1ncccn1` (centres undefined): 148 to 150 °C; `Clc1nc(CN2CCOCC2)nc2scc(-c3ccccc3)c12`: 82 to 84 °C; `c1ccc2[nH]c(C3CCNCC3)nc2c1`: 253 to 255 °C.
As to `O=C(Nc1cccc(N2CCOC2=O)c1)OCC(F)(F)F`, the melting point fell in the range of 152 to 154 °C.
`O=C(O)CCNC(=O)c1ccc2[nH]ncc2c1` returned a melting point of 240 to 242 °C.
As for `Cc1c(C(=O)O)sc2nc[nH]c(=O)c12`, the melting point fell in the range of 248 to 252 °C.
With `O=C(O)C1CC(=O)N(c2cn[nH]c2)C1` (centres undefined), the melting point lay in the range of 259 to 261 °C.
As for `CC(=O)Nc1ccc(C(N)=S)cc1`, the melting point fell in the range of 239 to 241 °C.
`COc1ccc(-c2cnc(CCC(=O)O)o2)cc1` gave a melting point of 158 to 160 °C.
The same measure for `CN(C)c1cccc(Oc2ccc(C(N)=S)cc2)c1`: 182 to 184 °C; for `N#CCc1c(C#N)c(N)nc(N2CCCCC2)c1C#N`: 142 to 144 °C; for `CN1CCc2ccc(S(=O)(=O)Cl)cc21`: 62 to 64 °C.
`COc1cccc2c1CCC2=O`: the melting point lay within 105 to 107 °C.
Consider `N=C(N)Nc1nc2ccccc2[nH]1`, for which the melting point lay within 242 to 244 °C.
`COC(=O)c1ccc(O)nc1C` showed a melting point of 222 to 224 °C.
Turning to `CC(C)(C)OC(=O)N1CCC(CCC(=O)O)CC1`, the melting point lay within 99 to 101 °C.
`COc1cc(C=NO)ccc1OC(F)F`: the melting point was 57 to 59 °C.
`ClC1=Nc2c(cnn2-c2ccccc2)CN1` yielded a melting point of 189 to 191 °C.
Compound `O=C(O)Cc1ccc(S(=O)(=O)N2CCCCC2)s1` gave a melting point of 81 to 83 °C.
With `Cc1cc(Oc2ccc(N)cc2)n[nH]1`, the melting point is 189 to 191 °C.
The same measure for `O=C1CCN(c2ccccc2)C1`: 94 to 96 °C; for `Nc1ccn(-c2ncccc2F)n1`: 89 to 91 °C; for `O=C(O)c1ccc2c(=O)n(-c3cccc(Cl)c3)c(=O)[nH]c2c1`: 365 to 367 °C.
Turning to `C#Cc1ccc(C(=O)O)nc1`, the melting point is 181 to 183 °C.
With `O=C(O)c1cc(-c2ccccc2)nc2cccc(Br)c12`, the melting point fell in the range of 235 to 237 °C.
As for `N#Cc1nc(-c2ccccc2)oc1NN`, the melting point fell in the range of 209 to 211 °C.
On to `COc1cc(C(=O)O)cc(Cl)c1OC(C)C`, for which the melting point was in the range of 156 to 158 °C.
Next, `O=C(O)c1cccn2c(I)cnc12`: 237 to 239 °C; `Nc1ccc(N2CCSCC2)c(Cl)c1`: 101 to 103 °C; `C[C@H](N)C(N)=O`: 67 to 69 °C.
The same measure for `CC(C)(C)c1nc2ccc(N)cc2s1`: 137 to 139 °C.
In turn, `CCN1N=C(C(=O)O)CC1=O` returned a melting point of 256 to 258 °C.
Next, `O=S1CCNc2ccccc21` (centres undefined): 201 to 203 °C.
Compound `N#CCC(=O)c1ccc(Br)s1` came in with a melting point of 143 to 145 °C.
As for `CC(N)(C(=O)O)c1cc(F)ccc1F` (centres undefined), the melting point was 301 to 303 °C.
`CSc1nc(-c2ccc(F)cc2)nc(C)c1C(=O)O` registered a melting point of 231 to 233 °C.
`CCOC(=O)N1CCC(NC(N)=S)CC1` had a melting point of 160 to 162 °C.
Next, `Cc1nnnn1C(=Cc1ccccc1)C(=O)O`: 201 to 203 °C.
On to `Nc1ccc(NC(=O)c2ccccc2F)cc1C(F)(F)F`, for which the melting point lay in the range of 124 to 126 °C.
On to `O=C(O)c1cc2c([nH]c1=O)CCCCC2`, for which the melting point lay in the range of 247 to 249 °C.
In the case of `CC(C)C(C(=O)O)c1cccc(Cl)c1` (centres undefined), the melting point fell in the range of 82 to 84 °C.
The compound `COc1ccc(N)cc1OCCO` had a melting point of 99 to 101 °C.
The same measure for `Cn1cc(-c2nc3ccccn3c2N)cn1`: 149 to 151 °C; for `Cc1nn(-c2ccc(F)cc2)c(Cl)c1CO`: 134 to 136 °C.
Consider `CC(CN1CCOCC1)C(=O)NN` (centres undefined), for which the melting point lay in the range of 86 to 88 °C.
For `O=C(O)Cc1csc(-c2ncccn2)n1`, the melting point lay in the range of 173 to 175 °C.
Compound `Cc1ccc(F)cc1-c1nc2ccccc2[nH]1` had a melting point of 223 to 225 °C.
Next, `O=C(CCl)Cc1ccc(F)cc1`: 127 to 129 °C; `NC(COC1CCOCC1)=NO`: 79 to 81 °C.
Next, `CC(=O)N1CCC(NC(=O)OCC(F)(F)F)CC1`: 115 to 124 °C; `CCOC(=O)C(=O)c1nc2ccccc2n1C`: 116 to 118 °C; `O=C(O)CCS(=O)(=O)N1CCOCC1`: 163 to 165 °C.
Turning to `O=C1CCCCc2c[nH]cc21`, the melting point was in the range of 64 to 66 °C.
For the compound `NC1(c2cccc(F)c2)CCOCC1`, the melting point fell in the range of 48 to 50 °C.
`CC(C)c1c(C(=O)O)cnn1Cc1ccccc1`: the melting point was in the range of 153 to 155 °C.
In turn, `Oc1cc2c(nn1)CCNC2` registered a melting point of 211 to 213 °C.
In turn, `Cc1ccc(OC2CCNCC2)cc1` came in with a melting point of 44 to 46 °C.
Next, `O=C(CSc1nnc(NCc2ccccc2)s1)NCC1CCCCC1`: 134 to 136 °C; `CCOC(=O)c1ccc(S(=O)(=O)Cl)c(Br)c1`: 48 to 50 °C; `Sc1nnnn1C1CC1`: 127 to 129 °C.
The compound `Cc1ccc(S(=O)(=O)C2CCCCC2=O)cc1` (centres undefined) had a melting point of 77 to 79 °C.
With `Cc1cccc(NC(S)=C(C#N)c2nc3ccccc3s2)c1C`, the melting point lay within 94 to 98 °C.
For `Cc1[nH]cnc1CC#N`, the melting point was in the range of 164 to 166 °C.
For `CSc1nc(C)c(CC(=O)O)s1`, the melting point lay in the range of 146 to 148 °C.
For `O=C(CC1CCCCC1)Nc1cccc2c1CCCN2`, the melting point was in the range of 192 to 194 °C.
Consider `Nc1nc2ccccc2n2nnnc12`, for which the melting point was in the range of 289 to 291 °C.
The compound `CNC(=O)COc1cccc(CC(=O)O)c1` had a melting point of 128 to 130 °C.
In turn, `O=C(Nc1cccc(Br)c1)C1CCNCC1` had a melting point of 178 to 180 °C.
`Cc1ccc(S(=O)(=O)NC(C(=O)O)C(C)C)cc1` (centres undefined) registered a melting point of 167 to 169 °C.
As for `Fc1cccc(-c2nnc(CCl)o2)c1`, the melting point was 65 to 67 °C.
The compound `CC1(c2ccccn2)NC(=O)NC1=O` (centres undefined) came in with a melting point of 170 to 172 °C.
In turn, `NS(=O)(=O)c1ccccc1Cn1ccnc1` came in with a melting point of 149 to 151 °C.
As to `Cc1cc(NC(C)C)ccc1C(N)=O`, the melting point was 132 to 134 °C.
Next, `NCCCc1c[nH]c2ccccc12`: 62 to 64 °C; `NC(=O)c1ccoc1`: 174 to 176 °C; `COc1ccccc1NC(=O)c1ccc(N)cc1`: 162 to 164 °C.
Consider `COc1cc(C(=O)O)on1`, for which the melting point lay within 145 to 147 °C.
Next, `Sc1nnc(-c2ccccc2)s1`: 199 to 201 °C.
In the case of `CC(NC(=O)CNC(=O)CCl)c1ccc(F)cc1` (centres undefined), the melting point lay in the range of 137 to 139 °C.
Compound `Fc1cccc(-c2noc(S)n2)c1` had a melting point of 93 to 95 °C.
`NCC(O)C1CCCCC1` (centres undefined) yielded a melting point of 85 to 87 °C.
Next, `O=C(O)Cc1csc(-c2ccccn2)n1`: 140 to 147 °C.
In turn, `CC1CCNc2ccccc2N1` (centres undefined) returned a melting point of 96 to 98 °C.
The same measure for `O=c1c(Cl)c(Cl)cnn1-c1ccc(F)cc1F`: 173 to 175 °C; for `NC(=O)NC(Cc1c[nH]c2ccccc12)C(=O)O` (centres undefined): 198 to 202 °C; for `O=C(O)CNC(=O)c1ccccn1`: 167 to 169 °C.
As for `CCOC(=O)Cc1nnc(S)n1C`, the melting point lay within 135 to 137 °C.
In the case of `CC(Cl)C(=O)Nc1ccc(F)c(F)c1F` (centres undefined), the melting point is 136 to 139 °C.
For the compound `O=C(O)CC1=C(c2cccs2)N2CCN=C2S1`, the melting point was in the range of 220 to 222 °C.
The same measure for `Cc1nn(-c2cccc(Cl)c2)nc1C(=O)O`: 202 to 204 °C.
In turn, `COc1cc(N)c(C(=O)O)cc1OC(F)F` came in with a melting point of 168 to 170 °C.
As to `O=C(O)CC(Br)C(=O)c1ccc(F)cc1` (centres undefined), the melting point lay in the range of 128 to 131 °C.
Turning to `COc1cccc(N2CC(C(=O)O)CC2=O)c1` (centres undefined), the melting point fell in the range of 166 to 168 °C.
On to `NS(=O)(=O)c1cccc(C(=O)O)c1`, for which the melting point fell in the range of 238 to 240 °C.
`c1ccc(CC2CCN(c3ncnc4sccc34)CC2)cc1`: the melting point is 124 to 126 °C.
For `COc1ccccc1-c1nn(Cc2ccccc2)cc1C(=O)O`, the melting point lay within 152 to 154 °C.
`O=[N+]([O-])c1ccc(CBr)c(F)c1` returned a melting point of 59 to 61 °C.
The same measure for `Cc1ncc(C=O)n1-c1ccc(Br)cc1`: 110 to 112 °C; for `CC1(C)NC(=O)N(CCBr)C1=O`: 97 to 99 °C; for `O=c1[nH]c(Cl)cc2ccccc12`: 214 to 216 °C.
Compound `O=Cc1cc(Cl)cc2cccnc12` showed a melting point of 155 to 157 °C.
The compound `CC(CC(N)=NO)NC(=O)OC(C)(C)C` (centres undefined) gave a melting point of 96 to 98 °C.
In turn, `Cc1oc2ccccc2c1C=O` returned a melting point of 69 to 71 °C.
The same measure for `Oc1ccc2c(c1)CNCC2`: 194 to 196 °C; for `NS(=O)(=O)c1ccc(CN=C=S)cc1`: 159 to 161 °C.
In the case of `Nc1nc(-c2ccc([N+](=O)[O-])cc2)no1`, the melting point is 294 to 296 °C.
